In ChEMBL document CHEMBL4680201, “Design, synthesis, and pharmacological evaluation of 4- or 6-phenyl-pyrimidine derivatives as novel and selective Janus kinase 3 inhibitors” (Eur J Med Chem, 2020):
Calls of active or inactive are those of the source. The rule behind the calls is not given here.

What was measured:
[1] = biological target: TEK (Angiopoietin-1 receptor) (Homo sapiens, UniProt Q02763); assay: Inhibition of recombinant human GST-tagged TEK (817 to 1101 residues) expressed in baculovirus expression system at 100 nM using Tyr 05 as substrate incubated for 1 hr in presence of ATP by Z'-LYTE assay relative to control; details: probe Tyr 05
[2] = biological target: ERBB4 (Receptor tyrosine-protein kinase erbB-4) (Homo sapiens, UniProt Q15303); assay: Inhibition of recombinant human N-terminal GST-tagged ERBB4 catalytic domain (708 to 993 residues) expressed in baculovirus expression system at 100 nM using tyrosine-1 peptide as substrate incubated for 60 mins in presence of ATP by Z'-LYTE assay relative to control; details: probe tyrosine-1 peptide
[3] = Cmax in ICR mouse at 30 mg/kg, po administered as single dose via gavage by LC-MS/MS analysis; type: ADME, organism-based; set-up: route oral, dose 30 mg/kg; details: in vivo
[4] = biological target: Tyrosine-protein kinase JAK2 (Homo sapiens, UniProt O60674); type: ADME
[5] = biological target: T1, Tyrosine-protein kinase JAK3 (Mus musculus) (UniProt Q62137); assay: Inhibition of JAK3 in anti-CD3/-CD28 coated mouse T cells assessed as reduction in IL2-induced STAT5 phosphorylation preincubated for 1 hr followed by IL2 stimulation and measured after 30 mins by Western blot analysis; details: T cell
T1 sequence (whole entry): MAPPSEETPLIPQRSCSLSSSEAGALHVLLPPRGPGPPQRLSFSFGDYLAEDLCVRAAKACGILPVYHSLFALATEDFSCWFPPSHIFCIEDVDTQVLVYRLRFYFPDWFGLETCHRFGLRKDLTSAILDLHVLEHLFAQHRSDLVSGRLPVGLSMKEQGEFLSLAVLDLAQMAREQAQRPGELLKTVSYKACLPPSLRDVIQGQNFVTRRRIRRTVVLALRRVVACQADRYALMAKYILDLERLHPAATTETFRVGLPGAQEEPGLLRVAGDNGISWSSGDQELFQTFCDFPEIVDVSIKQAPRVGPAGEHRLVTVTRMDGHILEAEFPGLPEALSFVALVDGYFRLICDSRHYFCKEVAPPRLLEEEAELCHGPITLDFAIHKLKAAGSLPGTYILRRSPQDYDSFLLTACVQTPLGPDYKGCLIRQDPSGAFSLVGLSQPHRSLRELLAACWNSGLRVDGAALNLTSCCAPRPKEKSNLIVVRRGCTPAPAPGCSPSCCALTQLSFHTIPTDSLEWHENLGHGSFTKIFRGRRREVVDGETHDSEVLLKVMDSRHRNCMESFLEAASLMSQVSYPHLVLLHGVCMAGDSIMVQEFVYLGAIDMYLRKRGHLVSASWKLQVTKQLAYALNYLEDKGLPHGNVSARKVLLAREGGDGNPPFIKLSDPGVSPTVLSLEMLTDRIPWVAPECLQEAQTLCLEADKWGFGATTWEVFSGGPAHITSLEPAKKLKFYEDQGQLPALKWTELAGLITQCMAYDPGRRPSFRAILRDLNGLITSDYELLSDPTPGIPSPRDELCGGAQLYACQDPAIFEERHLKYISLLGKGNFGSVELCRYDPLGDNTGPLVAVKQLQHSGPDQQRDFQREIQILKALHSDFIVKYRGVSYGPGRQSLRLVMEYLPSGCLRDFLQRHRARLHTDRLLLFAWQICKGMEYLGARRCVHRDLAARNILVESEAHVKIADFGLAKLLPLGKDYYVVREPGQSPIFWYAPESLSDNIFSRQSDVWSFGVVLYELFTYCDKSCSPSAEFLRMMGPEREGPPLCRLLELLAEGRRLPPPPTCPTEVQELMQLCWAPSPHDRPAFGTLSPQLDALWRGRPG

[6] = Plasma clearance in ICR mouse at 10 mg/kg, iv administered as single dose by LC-MS/MS analysis; type: ADME, organism-based; details: in vivo
[7] = biological target: BTK (Tyrosine-protein kinase BTK) (Homo sapiens, UniProt Q06187); assay: Inhibition of recombinant human His-tagged full length BTK expressed in baculovirus expression system at 100 nM using Tyr01 peptide as substrate incubated for 1 hr by Z'lyte assay relative to control; details: probe Tyr01 peptide
[8] = AUC (0 to infinity) in ICR mouse at 10 mg/kg, iv administered as single dose by LC-MS/MS analysis; type: ADME, organism-based; set-up: route intravenous, time infinity, dose 10 mg/kg; details: in vivo
[9] = Toxicity in Balb/c mouse model of oxazolone-induced delayed type hypersensitivity assessed as change in body weight up to 30 mg/kg, po; type: organism-based; details: in vivo
[10] = biological target: EGFR (Epidermal growth factor receptor) (Homo sapiens, UniProt P00533); assay: Inhibition of recombinant human GST-tagged EGFR (668 to 1210 residues) expressed in baculovirus expression system at 100 nM using Tyr04 peptide as substrate incubated for 1 hr by Z'lyte assay relative to control; details: probe Tyr04 peptide
[11] = biological target: T1, Tyrosine-protein kinase JAK3 (Mus musculus); assay: Inhibition of JAK3 in anti-CD3/-CD28 coated mouse T cells assessed as reduction in IL2-induced STAT5 phosphorylation at 10 uM preincubated for 1 hr followed by IL2 stimulation and measured after 30 mins by Western blot analysis; details: T cell
[12] = Apparent volume of distribution in ICR mouse at 10 mg/kg, iv administered as single dose by LC-MS/MS analysis; type: ADME, organism-based; details: in vivo, read-out: Vz
[13] = biological target: RET (Proto-oncogene tyrosine-protein kinase receptor Ret) (Homo sapiens, UniProt P07949); assay: Inhibition of recombinant human GST-tagged RET (658 to 1114 residues) expressed in baculovirus expression system at 100 nM using Tyr 02 as substrate incubated for 1 hr in presence of ATP by Z'-LYTE assay relative to control; details: probe Tyr 02
RAW264.7 = assay: Cytotoxicity against mouse RAW264.7 cells assessed as reduction in cell viability at 10 uM measured after 72 hrs by MTS assay; type: cell-based; details: raw264.7, 72 h
[14] = AUC (0 to infinity) in ICR mouse at 30 mg/kg, po administered as single dose via gavage by LC-MS/MS analysis; type: ADME, organism-based; set-up: time infinity, route oral, dose 30 mg/kg; details: in vivo
[15] = MRT (0 to infinity) in ICR mouse at 30 mg/kg, po administered as single dose via gavage by LC-MS/MS analysis; type: ADME, organism-based; details: in vivo
[16] = Apparent volume of distribution in ICR mouse at 30 mg/kg, po administered as single dose via gavage by LC-MS/MS analysis; type: ADME, organism-based; details: in vivo
[17] = AUC (0 to t) in ICR mouse at 30 mg/kg, po administered as single dose via gavage by LC-MS/MS analysis; type: ADME, organism-based; set-up: dose 30 mg/kg; details: in vivo
Mus musculus [18] = assay: Immunosuppressive activity in Balb/c mouse model of oxazolone-induced delayed type hypersensitivity assessed as reduction in ear swelling at 30 mg/kg, po measured after 7 days; type: functional, organism-based; details: time 7.0 day
Mus musculus [19] = assay: Immunosuppressive activity in po dosed Balb/c mouse model of oxazolone-induced delayed type hypersensitivity assessed as reduction in ear swelling measured after 7 days; type: functional, organism-based; details: time 7.0 day
[20] = Oral bioavailability in ICR mouse at 30 mg/kg administered as single dose via gavage by LC-MS/MS analysis; type: ADME, organism-based; details: in vivo

Chain of ERBB4 (Receptor tyrosine-protein kinase erbB-4) (Q15303 whole entry, the tested form may be a part): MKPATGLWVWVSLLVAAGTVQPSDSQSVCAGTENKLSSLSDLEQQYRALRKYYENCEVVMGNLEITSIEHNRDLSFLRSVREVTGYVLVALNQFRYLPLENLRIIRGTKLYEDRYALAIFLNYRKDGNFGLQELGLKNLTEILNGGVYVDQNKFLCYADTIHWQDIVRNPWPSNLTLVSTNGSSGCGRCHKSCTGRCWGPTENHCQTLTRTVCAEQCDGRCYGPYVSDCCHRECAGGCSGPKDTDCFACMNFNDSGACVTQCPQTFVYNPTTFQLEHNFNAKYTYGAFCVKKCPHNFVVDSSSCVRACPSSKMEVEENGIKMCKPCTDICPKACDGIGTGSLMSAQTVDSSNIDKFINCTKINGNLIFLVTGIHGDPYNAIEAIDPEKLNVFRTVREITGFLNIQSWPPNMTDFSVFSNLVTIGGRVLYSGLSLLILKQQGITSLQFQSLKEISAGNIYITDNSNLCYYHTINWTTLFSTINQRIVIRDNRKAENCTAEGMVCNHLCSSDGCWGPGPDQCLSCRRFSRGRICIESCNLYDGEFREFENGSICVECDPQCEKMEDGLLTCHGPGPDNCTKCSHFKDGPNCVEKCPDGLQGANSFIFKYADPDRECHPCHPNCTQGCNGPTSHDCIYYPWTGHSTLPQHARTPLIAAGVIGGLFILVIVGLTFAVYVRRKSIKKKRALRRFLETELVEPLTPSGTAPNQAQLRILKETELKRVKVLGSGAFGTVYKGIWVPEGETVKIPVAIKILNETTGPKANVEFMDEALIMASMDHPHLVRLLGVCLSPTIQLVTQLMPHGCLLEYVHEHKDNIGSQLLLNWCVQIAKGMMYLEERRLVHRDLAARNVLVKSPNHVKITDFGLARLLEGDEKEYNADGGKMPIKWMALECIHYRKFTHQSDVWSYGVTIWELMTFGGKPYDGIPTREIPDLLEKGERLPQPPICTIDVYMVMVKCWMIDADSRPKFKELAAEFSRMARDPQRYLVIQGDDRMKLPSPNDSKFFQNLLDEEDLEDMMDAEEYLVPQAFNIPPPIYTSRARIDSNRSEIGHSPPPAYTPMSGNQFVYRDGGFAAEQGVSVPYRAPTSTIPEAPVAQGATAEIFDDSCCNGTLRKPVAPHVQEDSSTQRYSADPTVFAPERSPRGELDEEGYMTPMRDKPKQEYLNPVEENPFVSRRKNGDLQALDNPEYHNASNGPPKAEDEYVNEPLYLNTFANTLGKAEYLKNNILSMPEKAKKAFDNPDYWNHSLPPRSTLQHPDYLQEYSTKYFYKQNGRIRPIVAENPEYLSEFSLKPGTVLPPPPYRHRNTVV
Chain of RET (Proto-oncogene tyrosine-protein kinase receptor Ret) (P07949 whole entry, the tested form may be a part): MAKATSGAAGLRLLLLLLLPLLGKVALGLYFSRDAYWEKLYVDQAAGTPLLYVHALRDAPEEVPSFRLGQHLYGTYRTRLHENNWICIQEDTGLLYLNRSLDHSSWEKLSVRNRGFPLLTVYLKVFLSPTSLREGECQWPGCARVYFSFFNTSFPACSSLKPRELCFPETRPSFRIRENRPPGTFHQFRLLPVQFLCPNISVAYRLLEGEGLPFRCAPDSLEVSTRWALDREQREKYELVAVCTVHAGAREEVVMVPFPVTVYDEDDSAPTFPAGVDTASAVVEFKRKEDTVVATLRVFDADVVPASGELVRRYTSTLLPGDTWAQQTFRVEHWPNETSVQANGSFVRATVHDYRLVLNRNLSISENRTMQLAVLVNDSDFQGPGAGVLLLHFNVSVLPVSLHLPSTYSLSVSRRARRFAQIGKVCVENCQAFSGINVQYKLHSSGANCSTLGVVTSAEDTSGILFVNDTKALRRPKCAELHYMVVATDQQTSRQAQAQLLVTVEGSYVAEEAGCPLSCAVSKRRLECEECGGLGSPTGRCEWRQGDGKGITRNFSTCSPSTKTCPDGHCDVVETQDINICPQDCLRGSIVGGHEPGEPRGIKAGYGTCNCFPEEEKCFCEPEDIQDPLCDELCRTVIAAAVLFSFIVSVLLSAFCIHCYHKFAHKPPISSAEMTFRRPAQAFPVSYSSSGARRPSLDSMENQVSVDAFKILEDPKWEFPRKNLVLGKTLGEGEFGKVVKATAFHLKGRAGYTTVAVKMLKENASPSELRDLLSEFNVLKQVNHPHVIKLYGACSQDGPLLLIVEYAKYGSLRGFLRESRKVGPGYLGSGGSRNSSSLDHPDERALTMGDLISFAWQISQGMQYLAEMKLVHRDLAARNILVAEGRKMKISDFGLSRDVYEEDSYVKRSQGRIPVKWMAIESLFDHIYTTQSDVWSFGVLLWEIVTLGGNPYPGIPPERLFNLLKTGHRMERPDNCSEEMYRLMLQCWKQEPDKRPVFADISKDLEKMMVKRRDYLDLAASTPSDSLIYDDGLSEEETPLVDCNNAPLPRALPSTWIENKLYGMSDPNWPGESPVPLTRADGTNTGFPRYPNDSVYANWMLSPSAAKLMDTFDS
Chain of Tyrosine-protein kinase JAK2 (O60674 whole entry): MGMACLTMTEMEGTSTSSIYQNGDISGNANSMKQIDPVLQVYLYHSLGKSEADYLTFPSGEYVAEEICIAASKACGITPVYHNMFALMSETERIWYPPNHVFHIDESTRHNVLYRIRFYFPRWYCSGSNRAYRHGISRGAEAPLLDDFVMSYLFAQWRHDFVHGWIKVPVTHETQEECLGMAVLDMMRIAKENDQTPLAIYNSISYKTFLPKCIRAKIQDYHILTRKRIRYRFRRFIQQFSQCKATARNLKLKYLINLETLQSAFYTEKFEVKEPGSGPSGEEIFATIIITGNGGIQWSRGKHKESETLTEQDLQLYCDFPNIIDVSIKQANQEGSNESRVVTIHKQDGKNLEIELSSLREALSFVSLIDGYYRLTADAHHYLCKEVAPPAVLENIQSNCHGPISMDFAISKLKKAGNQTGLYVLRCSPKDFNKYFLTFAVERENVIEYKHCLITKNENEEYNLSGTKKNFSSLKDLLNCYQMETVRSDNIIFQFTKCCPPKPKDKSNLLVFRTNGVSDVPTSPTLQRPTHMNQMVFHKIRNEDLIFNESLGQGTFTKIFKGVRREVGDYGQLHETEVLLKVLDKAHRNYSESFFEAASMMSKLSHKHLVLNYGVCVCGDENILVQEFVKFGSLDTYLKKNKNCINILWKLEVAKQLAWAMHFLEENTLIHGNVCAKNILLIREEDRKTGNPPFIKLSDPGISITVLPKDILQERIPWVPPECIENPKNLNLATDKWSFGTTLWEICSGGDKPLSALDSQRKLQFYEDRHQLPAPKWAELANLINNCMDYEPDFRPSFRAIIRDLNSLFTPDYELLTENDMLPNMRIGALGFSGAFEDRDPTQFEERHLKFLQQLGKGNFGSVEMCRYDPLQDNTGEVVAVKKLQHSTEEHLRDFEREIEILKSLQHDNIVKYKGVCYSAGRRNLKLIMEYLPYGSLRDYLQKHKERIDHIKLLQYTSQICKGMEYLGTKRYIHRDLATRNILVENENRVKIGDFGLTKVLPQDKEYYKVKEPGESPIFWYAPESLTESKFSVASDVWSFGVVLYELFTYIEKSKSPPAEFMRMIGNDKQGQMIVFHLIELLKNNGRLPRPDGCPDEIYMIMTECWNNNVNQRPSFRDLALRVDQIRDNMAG
Chain of BTK (Tyrosine-protein kinase BTK) (Q06187 whole entry): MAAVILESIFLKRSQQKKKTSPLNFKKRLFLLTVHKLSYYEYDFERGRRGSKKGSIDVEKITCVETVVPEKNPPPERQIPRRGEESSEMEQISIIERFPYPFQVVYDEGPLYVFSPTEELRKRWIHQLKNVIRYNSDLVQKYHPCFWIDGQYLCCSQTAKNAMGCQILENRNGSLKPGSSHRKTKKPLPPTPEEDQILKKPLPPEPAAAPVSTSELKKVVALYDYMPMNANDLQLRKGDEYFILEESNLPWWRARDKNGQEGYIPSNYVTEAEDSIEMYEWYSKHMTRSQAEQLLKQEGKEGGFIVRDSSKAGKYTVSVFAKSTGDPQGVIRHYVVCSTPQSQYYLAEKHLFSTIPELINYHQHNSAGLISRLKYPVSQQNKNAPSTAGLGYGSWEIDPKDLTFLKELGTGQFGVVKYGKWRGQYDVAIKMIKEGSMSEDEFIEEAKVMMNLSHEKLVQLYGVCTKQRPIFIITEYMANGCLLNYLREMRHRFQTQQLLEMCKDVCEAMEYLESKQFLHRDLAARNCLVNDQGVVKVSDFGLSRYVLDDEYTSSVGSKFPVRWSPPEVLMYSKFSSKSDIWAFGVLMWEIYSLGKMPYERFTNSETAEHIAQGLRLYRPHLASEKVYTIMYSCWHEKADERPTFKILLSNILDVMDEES

inhibition at 1 h, 0.1 µM [1]: 29.5%
inhibition at 1 h, 0.1 µM [2]: 8%
Cmax [3]: 2010 ng/mL
IC50 [4]: 1 µM
inhibition [5]: Dose-dependent effect
CLz/F [6]: 136 mL/min/kg
inhibition at 1 h, 0.1 µM [7]: 6.3%
AUC(0-inf) [8]: 1270 ng·h/mL
inhibition at 1 h, 0.1 µM [10]: 1.2%
inhibition [11]: Active
Vd [12]: 8.36 L/kg
inhibition at 1 h, 0.1 µM [13]: 2.9%
AUC [14]: 897.12 ng·h/mL
MRT inf [15]: 1.42 h
Vz [16]: 220.42 L/kg
AUC(0-t) [17]: 889 ng·h/mL
bioavailability [20]: 23.8%
Structure (SMILES): C=CC(=O)Nc1ccc(-c2ccnc(Nc3ccc(N4CCOCC4)cc3)n2)cc1
Activity [9]: Non-Toxic
Activity (RAW264.7): Non-Toxic
Activity (Mus musculus [18]): Active
Activity (Mus musculus [19]): Dose-dependent effect
